Laboratory results from ChEMBL document CHEMBL1150508, “Benzopyran potassium channel activators related to cromakalim - amide replacements at position 4” (1993).

How the values were obtained:
Type in all cases: functional, Artery
Details in all cases: route oral
Rattus norvegicus [1] = assay: Maximum fall in systolic blood pressure at interval of 1 hour over a period of 1-6 hour after dose of 1.0 mg/kg (p.o.) in spontaneous hypertensive rat (SHR); parameters: unit not given here
Rattus norvegicus [2] = assay: Maximum fall in systolic blood pressure at interval of 1 hour over a period of 1-6 hour after dose of 3.0 mg/kg (p.o.) in spontaneous hypertensive rat (SHR)
Rattus norvegicus [3] = assay: Maximum fall in systolic blood pressure at interval of 1 hour over a period of 1-6 hour after dose of 0.3 mg/kg (p.o.) in spontaneous hypertensive rat (SHR); parameters: unit not given here
Rattus norvegicus [4] = assay: Maximum fall in systolic blood pressure at interval of 1 hour over a period of 1-6 hour after dose of 0.1 mg/kg (p.o.) in spontaneous hypertensive rat (SHR)
Rattus norvegicus [5] = assay: Maximum fall in systolic blood pressure at interval of 1 hour over a period of 1-6 hour after dose of 10 mg/kg (p.o.) in spontaneous hypertensive rat (SHR)
Rattus norvegicus [6] = assay: Maximum fall in systolic blood pressure at interval of 1 hour over a period of 1-6 hour after dose 1.0 mg/kg (p.o.) in spontaneous hypertensive rat (SHR)

| SMILES | Max fall in blood pressure (Rattus norvegicus [1]) | Max fall in blood pressure (Rattus norvegicus [3]) | also measured |
| --- | --- | --- | --- |
| C/N=C(/NC#N)NC1c2cnccc2OC(C)(C)[C@H]1O (stereo not given in full) | 25 | – | – |
| CN/C(=N/C1=CC(C)(C)Oc2ccc(C#N)cc21)NC#N | 17 | – | Max fall in blood pressure (Rattus norvegicus [2]): 15 |
| C/N=C(\NC1c2cc(C#N)ccc2OC(C)(C)[C@H]1O)NS(N)(=O)=O (stereo not given in full) | – | – | Max fall in blood pressure (Rattus norvegicus [2]): 14 |
| C/N=C(/NC#N)NC1c2cc(C#N)ccc2OC(C)(C)C1O (single isomer, unassigned) | 41 | 16 | – |
| CNC(=O)NC1c2cc(C#N)ccc2OC(C)(C)C1O (single isomer, unassigned) | 61 | 31 | Max fall in blood pressure (Rattus norvegicus [4]): 14 |
| C/N=C(/NC(C)=O)NC1c2cc(C#N)ccc2OC(C)(C)C1O (single isomer, unassigned) | 17 | – | – |
| CC1(C)Oc2ccc(C#N)cc2C(/N=C(/N)NC#N)C1O (single isomer, unassigned) | 48 | 24 | – |
| CN/C(=C\[N+](=O)[O-])NC1c2cc(C#N)ccc2OC(C)(C)C1O (single isomer, unassigned) | 7 | – | Max fall in blood pressure (Rattus norvegicus [5]): 12 |
| CC(C)(C)/N=C(/NC#N)NC1c2cc(C#N)ccc2OC(C)(C)C1O (single isomer, unassigned) | – | – | Max fall in blood pressure (Rattus norvegicus [6]): 8; Max fall in blood pressure (Rattus norvegicus [5]): 10 |
| C/N=C(/NC(N)=O)NC1c2cc(C#N)ccc2OC(C)(C)C1O (single isomer, unassigned) | – | – | Max fall in blood pressure (Rattus norvegicus [2]): 19 |
| CC1(C)Oc2ccc(C#N)cc2C(N2CCCC2=O)[C@H]1O (stereo not given in full) [CROMAKALIM] | 47 | 39 | Max fall in blood pressure (Rattus norvegicus [4]): 13 |
